Reference: patent publication US7635467B2, “Mammalian multipotent stem cells and compositions, methods of preparation and methods of administration thereof” (The Board of Trustees of the University of Illinois, priority 2002, dated 2009)
Entries after “also recorded” stand apart in the source; their conditions may differ.

Assays:
[1] = tested on: human MeSCs; test: Co-culture of BrdU-treated human MeSCs with differentiated NSCs, immunocytochemistry for bIII-tubulin and GFAP; type: cell-based; details: MeSCs treated with 10 μM BrdU for 5 days; seven days post-coculture
[2] = tested on: Genomic DNA from human MeSCs; test: Methylation-sensitive restriction enzyme (HpaII) digestion of genomic DNA from BrdU-treated MeSCs; details: 0, 1 and 10 μM BrdU for 72 hr; dose-dependent
[3] = tested on: human MNSCs; test: Exposure of human MNSC cultures to recombinant reelin; type: cell-based
Excerpt: The cell cluster is composed of undifferentiated cultured cells with migrating and differentiating cells forming the leading outer processes.

[4] = tested on: human MNSCs; test: Differentiation of human MNSCs treated with recombinant sAPP, serum-free conditions; type: cell-based
Description: To investigate whether 22C11-induced inhibition of human MNSC differentiation occurs through the sequestering of sAPP or by blocking the N-terminal domain of APP on the membrane of differentiating cells, human MNSCs were treated with exogenous sAPP. Recombinant human sAPP was produced in yeast, which contains 95% sAPP695T (ending at amino acid 505 of 695) and 5% sAPP695.
The cell population of sAPP-treated human MNSCs at 5 DIV under the serum-free differentiation condition was also characterized by double immunofluorescence labeling of GFAP and bIII tubulin (FIG. 29). Treatment with sAPP dose dependently (25, 50, 100 ng/ml) increased the population of GFAP positive cells from an average of 45% in controls (no sAPP) to an average of 83% using the highest concentration of sAPP (100 ng/ml at 5 DIV).

O=c1[nH]c(=O)n([C@H]2C[C@H](O)[C@@H](CO)O2)cc1Br [BrdU, 5-bromo-2-deoxyuridine]
GFAP-immunopositive large flattened multipolar cells, of total cells [1]: approximately 60%
bIII-tubulin immunopositive small bipolar and unipolar cells, of total cells [1]: approximately 40%
HpaII digestion of genomic DNA (size of DNA fragments) [2]: prevented enzyme digestion; also recorded: prevents methylation-sensitive restriction enzyme digestion of DNA

recombinant reelin: large extracellular matrix (ECM) protein of approximately 400 kDa
mobility of cells in the cluster ([3]; addition of recombinant reelin to NSCs in culture): increased mobility of cells
behaviour of processes of differentiating human MNSC cultures ([3]; exposure to recombinant reelin): immediately retract their processes back to the cell cluster

sAPP: Recombinant human sAPP produced in yeast, contains 95% sAPP695T (ending at amino acid 505 of 695) and 5% sAPP695
population of GFAP positive cells ([4]; 100 ng/ml at 5 DIV, serum-free, 45% in controls): 83%
bIII-tubulin-positive neurons in total population of differentiated human MNSCs ([4]; highest concentration of sAPP, 5 DIV, serum-free, 51% in controls): 13%
differentiation pattern (GFAP / bIII-tubulin staining) compared to control ([4]; low doses of sAPP (e.g., 25 ng/ml), 5 DIV, serum-free): increased glial (red) and neuronal (green) differentiation
TUNEL signal in human MNSCs ([4]; sAPP treatment): did not increase the TUNEL signal
differentiation of human MNSCs ([4]; serum-free differentiation conditions, 25, 50 and 100 ng/ml, 5 days, dose-dependent): differentiated human MNSCs; also recorded: increased the differentiation
